{
  "source": "patent US20080131366A1",
  "about": "“Folate Receptor Gene Modulation For Cancer Diagnosis And Therapy” (priority 2003, published 2008)",
  "assay_type_in_all_cases": "cell-based",
  "key": {"FR-α promoter [1]": {"test_system": "FR-α promoter", "assay": "FR-α promoter-luciferase reporter in HeLa cells co-transfected with ER", "experimental": "(§1) (FIG. 1A) HeLa and IGROV-1 cells (10^6) were co-transfected with the FR-α promoter-luciferase construct (400 ng) and either an ER expression plasmid (25 ng) or with the plasmid vector alone (25 ng) in the presence of 1 nM E2. Antiestrogens were introduced at the time of transfection. […] (FIG. 1B) The FR-α promoter-luciferase construct (400 ng) was transfected into BG-1 cells (10^6) in the absence or in the presence of E2 (1 nM) and antiestrogens were introduced at the time of transfection. (FIG. 1C) HeLa cells (10^6) were transfected with the thymidine kinase (TK)-promoter-luciferase (200 ng) or Rous Sarcoma Virus (RSV)-promoter-luciferase (200 ng) constructs and were co-transfected with either ER plasmid (25 ng) or with the plasmid vector (25 ng). Antiestrogens were introduced at the time of transfection.\nFIGS. 2A and 2B are graphs showing an estrogen and antiestrogen dose response of a control ERE-driven promoter and the FR-α promoter in HeLa cells. The Y-axis in FIG. 2A indicates promoter activation, whereas the Y-axis in FIG. 2B indicates promoter repression. The cells (10^6) were transfected with either ERE2E1b-luciferase (100 ng) (FIG. 2A) or FR-α promoter-luciferase (100 ng) (FIG. 2B) and co-transfected with the ER expression plasmid (50 ng) where indicated. Cells that were not co-transfected with the ER-plasmid were co-transfected instead with the plasmid vector alone (50 ng).\nFIGS. 3A and 3B are graphs showing a time course of response of the control ERE2E1b-luciferase (FIG. 3A) and FR-α promoter luciferase (FIG. 3B) to antiestrogens in HeLa cells. The cells (10^6) were transfected with the indicated promoter-luciferase construct (100 ng) and co-transfected with ER expression plasmid (50 ng) in the presence of E2 (1 nM).\nIn one set of experiments, the antiestrogens were removed after a 6 h treatment.\nCell Culture and Transfection: HeLa I-1 cells were kindly provided by Dr. S. T. Rosen. BG-1 cells were provided by Dr. Randolf Ruch. HeLa (American Type Tissue Collection) and HeLa I-1 cells were routinely cultured in phenol red-free MEM supplemented with fetal bovine serum (FBS) (10%), penicillin (100 units/mL), streptomycin ([…]), and L-glutamine (2 mM). BG-1 and IGROV1 (American Type Tissue Collection) cells were routinely cultured in DMEM and supplemented as above. Treated or transfected cells were grown in phenol-red free media supplemented with charcoal-stripped FBS (5% v/v), penicillin (100 units/mL), streptomycin ([…]), L-glutamine (2 mM), insulin (2 μg/mL), and transferrin (40 μg/mL) unless otherwise noted. In addition, treated HeLa I-1 cells were grown in culture with 50 μg/mL G418. […] Uniformity of transfection was routinely monitored through cotransfections with the β-galactosidase expression plasmid, pSV-β-gal (Promega). β-galactosidase activity was measured colorimetrically using the assay system available from Promega.\nLuciferase Assay: Forty-eight hours after transfection, the cells were washed once with PBS (10 mM sodium phosphate, pH 7.5, 150 mM NaCl) and harvested in 400 μL of reporter lysis buffer provided with the luciferase assay system (Promega). The samples were centrifuged at 12,000 g for 2 min at room temperature. The supernatant was assayed for luciferase activity in a luminometer (Lumat LB9501, Berthold) using the luciferase substrate from Promega."}, "FR-α promoter [2]": {"test_system": "FR-α promoter", "assay": "FR-α promoter-luciferase reporter in IGROV-1 cells co-transfected with ER", "conditions": "IGROV-1, ER co-transfected, 1 nM E2, pharmacologic concentrations of antiestrogen", "experimental": "as §1\n(§2) Cell Culture and Transfection: HeLa I-1 cells were kindly provided by Dr. S. T. Rosen. BG-1 cells were provided by Dr. Randolf Ruch. […] Uniformity of transfection was routinely monitored through cotransfections with the β-galactosidase expression plasmid, pSV-β-gal (Promega). β-galactosidase activity was measured colorimetrically using the assay system available from Promega. […]"}, "FR-α promoter [3]": {"test_system": "FR-α promoter", "assay": "FR-α promoter-luciferase reporter in BG-1 cells (endogenous ER)", "conditions": "BG-1, endogenous ER", "experimental": "as §1, §2"}, "FR-α": {"test_system": "FR-α", "assay": "Induction of endogenous FR-α in ER+/FRα-negative cells", "conditions": "ER+/FRα-negative cells including BG-1; results not shown", "text": "It appears that ER will only modulate the endogenous FR-α gene in cells in which the gene is transcriptionally active."}, "FR-α/SV40 (GC)6 promoter": {"test_system": "FR-α/SV40 (GC)6 promoter", "assay": "FR-α/SV40 (GC)6 chimeric promoter-luciferase in HeLa cells with ER", "conditions": "in the presence of ER", "experimental": "FIG. 6C is a graph showing HeLa cells (10^6) which were transfected with FR-α promoter-luciferase (FR-α-Luc) (400 ng) [Seq. ID No. 6], FR-1-Luc in which the G/C-rich region (−47 nt to −18 nt) [Seq. ID No. 7] of the P4 promoter was replaced by the G/C-rich region in the SV40 early promoter (FR-α/SV40 (GC)6) (400 ng), or with FR-α-Luc[Seq. ID No. 6] in which the initiator region (−28 nt to +33 nt) [Seq. ID No. 8] was replaced by the TATA box-containing initiator region of the SV40 early promoter (FR-α/SV40-lnr) (400 ng). ER expression plasmid (25 ng) or the plasmid vector (25 ng) was co-transfected as indicated. The transfected cells were grown in the presence of E2 (1 nM) and either in the absence or in the presence of ICI 182, 780 for 48 h before harvesting them for luciferase assays.\nDNA Constructs: Construct design used either natural restriction sites or restriction sites created by the polymerase chain reaction (PCR) using Vent DNA polymerase (New England Biolabs) and custom oligonucleotides from Gibco BRL. In cases where a natural restriction site could not be found for use, complementary primers containing an appropriate restriction site or point mutation were used in conjunction with upstream and downstream primers containing restriction sites. Alternatively, mutagenic oligonucleotides were used as end primers to amplify the desired fragment. […]"}, "FR-α promoter [4]": {"test_system": "FR-α promoter", "assay": "FR-α promoter-luciferase in HeLa cells transfected with ERβ", "experimental": "FIG. 8 is graph showing an effect of ERα vs. […] on FR-α promoter activity. HeLa cells (10^6) were transfected with the FR-α promoter-luciferase construct (200 ng) and co-transfected individually or in combination with expression plasmids (25 ng) for ERα, […] or with the plasmid vector. The cells were treated from the time of transfection with E2 (1 nm) and either without or with ICI 182, 780.\nEffect of ERβ on FR-α Promoter activity: Since ER+ gynecological tumors are known to frequently co-express ERα and ERβ, the inventor herein tested whether ERβ may modulate FR-α similar to ERα or may otherwise counteract the effect of ERα."}},
  "data": [
    {"molecule": "C[C@]12CC[C@@H]3c4ccc(O)cc4C[C@@H](CCCCCCCCC[S+]([O-])CCCC(F)(F)C(F)(F)F)[C@H]3[C@@H]1CC[C@@H]2O", "note": "(stereo partly drawn) [ICI 182,780]", "values": [
      {"measurement": "duration of derepression after withdrawing the compound", "setting": "FR-α promoter [1]; 6 h treatment", "value": "at least 18 h"},
      {"measurement": "derepression of FR-α promoter after 6 h treatment and withdrawal", "setting": "FR-α promoter [1]; 6 h treatment, then compound withdrawn", "value": "full derepression"},
      {"measurement": "effect on FR-α promoter (ligand dose response)", "setting": "FR-α promoter [1]; HeLa, ER co-transfected", "value": "the repression was counteracted"},
      {"measurement": "FR-α promoter activity after repression by ER", "setting": "FR-α promoter [1]; HeLa, ER co-transfected, 1 nM E2, pharmacologic concentrations of antiestrogen", "value": "either partially or completely restored to the uninhibited values"},
      {"measurement": "reporter activity at the end of 48 h post-transfection", "setting": "FR-α promoter [1]; antiestrogen introduced 24 h after co-transfection", "value": "a doubling of the reporter activity"},
      {"measurement": "onset of activation of FR-α promoter", "setting": "FR-α promoter [1]; antiestrogen introduced 24 h after transfection", "value": "began within hours and progressively increased"},
      {"measurement": "FR-α promoter activity in the absence of ER", "setting": "FR-α promoter [1]; no ER co-transfected, HeLa and IGROV-1, results not shown", "value": "did not alter FR-α promoter activity"},
      {"measurement": "FR-α promoter activity after repression by ER", "setting": "FR-α promoter [2]", "value": "either partially or completely restored to the uninhibited values"},
      {"measurement": "FR-α promoter activity", "setting": "FR-α promoter [3]", "value": "increased the promoter activity"},
      {"measurement": "induction of endogenous FR-α expression", "setting": "FR-α", "value": "In no case did the inventor observe induction"},
      {"measurement": "chimeric promoter activity", "setting": "FR-α/SV40 (GC)6 promoter", "value": "this activation was counteracted"},
      {"measurement": "repression of the FR-α promoter by ERβ", "setting": "FR-α promoter [4]", "value": "reversed"}
    ]}
  ]
}
